# Experimental data from patent publication US4452741A, “A-39183 Antibiotics and process for production thereof” (Eli Lilly and Company, priority 1983, dated 1984).
# Like-named read-outs stand apart in the source and are kept apart here.
# Assays:
# [1] = test system: Staphylococcus aureus 3055; assay: agar-dilution MIC; type: cell-based
# Description: (§1) The agar-dilution procedure described by the International Collaborative Study (ICS) group was used to determine MIC values.
# [2] = test system: Bacteroides fragilis 1877; assay: MIC, anaerobic bacteria; type: cell-based
# Bacteroides fragilis 2 = assay: MIC, anaerobic bacteria; type: cell-based
# Bacteroides fragilis 104 = assay: MIC, anaerobic bacteria; type: cell-based
# solubility = type: physicochemical; conditions: organic solvents
# [3] = test system: Bacteroides vulgatis 1563; assay: MIC, anaerobic bacteria; type: cell-based
# [4] = test system: Staphylococcus aureus 3074; assay: agar-dilution MIC; type: cell-based; conditions: agar-dilution method, benzylpenicillin-resistant
# [5] = test system: Bacteroides thetaiotaomicron 1900A; assay: MIC, anaerobic bacteria; type: cell-based
# [6] = test system: Fusobacterium necrophorum 6054A; assay: MIC, anaerobic bacteria; type: cell-based
# [7] = test system: Bacteroides fragilis 1470; assay: MIC, anaerobic bacteria; type: cell-based
# [8] = test system: Bacteroides melaninogenicus 2736; assay: MIC, anaerobic bacteria; type: cell-based
# [9] = test system: Fusobacterium symbiosum 1470; assay: MIC, anaerobic bacteria; type: cell-based
# [10] = test system: Clostridium perfringens 81; assay: microbe, parasite or virus in culture; type: cell-based
# Bacteroides fragilis 108 = assay: MIC, anaerobic bacteria; type: cell-based
# Bacteroides fragilis 62 = assay: MIC, anaerobic bacteria; type: cell-based
# [11] = test system: Streptococcus faecalis X66; assay: agar-dilution MIC; type: cell-based; conditions: Enterococcus faecalis
# [12] = test system: Peptostreptococcus intermedius 1264; assay: MIC, anaerobic bacteria; type: cell-based
# [13] = test system: Streptococcus pneumoniae Park I; assay: disc-plate zone of inhibition; type: cell-based; conditions: 6 mm discs, read-out: Zone Diameter
# Protocol: (§2) Agar plates, inoculated with the test organism, were used; 6 mm. discs (0.02 ml. capacity) were saturated from log 2 dilutions of the antibiotic solution. Disc content was 1/5 or 1/50 of the concentration of the solution used, i.e., disc content of […] 30 μg. was obtained from a solution of 1500 μg./ml. concentration.
# [14] = test system: Streptococcus pyogenes C203; assay: disc-plate zone of inhibition; type: cell-based; conditions: 6 mm discs, read-out: Zone Diameter
# Protocol: as §2
# [15] = test system: Staphylococcus aureus 3074; assay: disc-plate zone of inhibition; type: cell-based; conditions: benzylpenicillin-resistant, 6 mm discs, read-out: Zone Diameter
# Protocol: as §2
# [16] = test system: Streptococcus sp. (Group D) 9960; assay: disc-plate zone of inhibition; type: cell-based; conditions: 6 mm discs, read-out: Zone Diameter
# Protocol: as §2
# [17] = test system: Staphylococcus aureus 3130; assay: disc-plate zone of inhibition; type: cell-based; conditions: benzylpenicillin-resistant, methicillin-resistant, 6 mm discs, read-out: Zone Diameter
# Protocol: as §2
# [18] = test system: Staphylococcus aureus 3055; assay: disc-plate zone of inhibition; type: cell-based; conditions: benzylpenicillin-susceptible, 6 mm discs, read-out: Zone Diameter
# Protocol: as §2
# Bacteroides fragilis 110 = assay: MIC, anaerobic bacteria; type: cell-based
# [19] = test system: Bacteroides thetaiotaomicron 1438; assay: MIC, anaerobic bacteria; type: cell-based
# Description: as §1
# [20] = test system: Clostridium septicum 1128; assay: MIC, anaerobic bacteria; type: cell-based
# Description: as §1
# [21] = test system: Bacteroides fragilis 1936B; assay: MIC, anaerobic bacteria; type: cell-based
# [22] = test system: Actinomyces israelii W855; assay: MIC, anaerobic bacteria; type: cell-based
# [23] = test system: Peptostreptococcus anaerobius 1428; assay: MIC, anaerobic bacteria; type: cell-based
# Peptococcus prevoti 1281 = assay: MIC, anaerobic bacteria; type: cell-based
# Bacteroides fragilis 111 = assay: MIC, anaerobic bacteria; type: cell-based
# [24] = test system: Peptococcus asaccharolyticus 1302; assay: MIC, anaerobic bacteria; type: cell-based; conditions: Peptoniphilus asaccharolyticus
# Bacteroides fragilis 113 = assay: MIC, anaerobic bacteria; type: cell-based
# [25] = test system: Eubacterium aerofaciens 1235; assay: MIC, anaerobic bacteria; type: cell-based; conditions: Collinsella aerofaciens
# [26] = test system: Bacteroides melaninogenicus 1856/28; assay: MIC, anaerobic bacteria; type: cell-based; conditions: Prevotella intermedia
# Bacteroides fragilis 107 = assay: MIC, anaerobic bacteria; type: cell-based
# Bacteroides fragilis 112 = assay: MIC, anaerobic bacteria; type: cell-based
# Bacteroides fragilis 106 = assay: MIC, anaerobic bacteria; type: cell-based
# Bacteroides fragilis 103 = assay: MIC, anaerobic bacteria; type: cell-based
# [27] = test system: Bacteroides fragilis 1451; assay: MIC, anaerobic bacteria; type: cell-based
# Bacteroides fragilis 9 = assay: MIC, anaerobic bacteria; type: cell-based
# [28] = test system: Bacteroides vulgatis 1211; assay: MIC, anaerobic bacteria; type: cell-based
# [29] = test system: Propionibacterium acnes 79; assay: MIC, anaerobic bacteria; type: cell-based; conditions: Cutibacterium acnes
# [30] = test system: Bacteroides corrodens 1874; assay: MIC, anaerobic bacteria; type: cell-based
# electrometric titration = type: physicochemical; conditions: 66% dimethylformamide in water
# Protocol: Antibiotic A-39183 factor A is a yellow, crystalline solid, having a molecular weight of 598.58, as determined by mass spectrometry, and an approximate elemental analysis as follows: 67.95% carbon, 5.20% hydrogen, and 26.79% oxygen. […] A-39183 factor A has the following specific rotation: [α]D^25 +18.9° (c 9.52, trifluoroethanol).
# Antibiotic A-39183 factor b is a red, crystalline solid having a molecular weight of 580, as determined by mass spectrometry, and an approximate elemental analysis as follows: 70.56% carbon, 4.97% hydrogen, and 24.57% oxygen. […] A-39183 factor B has the following specific rotation: [α]D^25 +576.9° (c 8.85, trifluoroethanol).
# [31] = Bacteroides fragilis, 1877, Bacteroides fragilis 1877, first listing
# [32] = Bacteroides thetaiotaomicron, 1438, Bacteroides thetaiotaomicron 1438, first listing, read-out: MIC
# [33] = Bacteroides fragilis, 111, Bacteroides fragilis 111, first listing
# [34] = Eikenella corrodens, 1874, Bacteroides corrodens 1874, first listing
smiles,measurement,setting,value
CC(=O)c1c(C)cc(O)c2c(O)c3c(O)cccc3c(-c3c4c(c(O)c5c(O)cccc35)C(=O)CC(C)(O)C4C(C)=O)c12 (centres unmarked) [A-39183 factor B],MIC,[1],0.5 µg/mL
same,MIC,[2]; [31],1 µg/mL
same,MIC,"[2]; Bacteroides fragilis, 1877, Bacteroides fragilis 1877, second listing",4 µg/mL
same,MIC,Bacteroides fragilis 2,2 µg/mL
same,MIC,Bacteroides fragilis 104,4 µg/mL
same,solubility (soluble),solubility,soluble in the same solvents as factor A
same,MIC,[3],8 µg/mL
same,MIC,[4],4 µg/mL
same,MIC,[5],16 µg/mL
same,MIC,[6],≤ 0.5 µg/mL
same,MIC,[7],4 µg/mL
same,MIC,[8],4 µg/mL
same,MIC,[9],8 µg/mL
same,MIC,[10],8 µg/mL
same,MIC,Bacteroides fragilis 108,4 µg/mL
same,MIC,Bacteroides fragilis 62,1 µg/mL
same,MIC,[11],4 µg/mL
same,MIC,[12],2 µg/mL
same,zone of inhibition at 30 µg/disc,[13]; 30 μg/disc,0 mm
same,zone of inhibition at 300 µg/disc,[13]; 300 μg/disc,9.1 mm
same,zone of inhibition at 30 µg/disc,[14]; 30 μg/disc,8 mm
same,zone of inhibition at 300 µg/disc,[14]; 300 μg/disc,10 mm
same,zone of inhibition at 30 µg/disc,[15]; 30 μg/disc,14.8 mm
same,zone of inhibition at 300 µg/disc,[15]; 300 μg/disc,15.8 mm
same,zone of inhibition at 30 µg/disc,[16]; 30 μg/disc,0 mm
same,zone of inhibition at 300 µg/disc,[16]; 300 μg/disc,9.1 mm
same,zone of inhibition at 30 µg/disc,[17]; 30 μg/disc,13.4 mm
same,zone of inhibition at 300 µg/disc,[17]; 300 μg/disc,14 mm
same,zone of inhibition at 30 µg/disc,[18]; 30 μg/disc,0 mm
same,zone of inhibition at 300 µg/disc,[18]; 300 μg/disc,0 mm
same,MIC,Bacteroides fragilis 110,4 µg/mL
same,MIC,[19]; [32],16 µg/mL
same,MIC,"[19]; Bacteroides thetaiotaomicron, 1438, Bacteroides thetaiotaomicron 1438, second listing",4 µg/mL
same,MIC,[20],2 µg/mL
same,MIC,[21],2 µg/mL
same,MIC,[22],≤ 0.5 µg/mL
same,MIC,[23],8 µg/mL
same,MIC,Peptococcus prevoti 1281,8 µg/mL
same,MIC,Bacteroides fragilis 111; [33],≤ 0.5 µg/mL
same,MIC,"Bacteroides fragilis 111; Bacteroides fragilis, 111, Bacteroides fragilis 111, second listing",4 µg/mL
same,MIC,[24],32 µg/mL
same,MIC,Bacteroides fragilis 113,4 µg/mL
same,MIC,[25],8 µg/mL
same,MIC,[26],> 128 µg/mL
same,MIC,Bacteroides fragilis 107,4 µg/mL
same,MIC,Bacteroides fragilis 112,4 µg/mL
same,MIC,Bacteroides fragilis 106,4 µg/mL
same,MIC,Bacteroides fragilis 103,4 µg/mL
same,MIC,[27],4 µg/mL
same,MIC,Bacteroides fragilis 9,4 µg/mL
same,MIC,[28],2 µg/mL
same,MIC,[29],2 µg/mL
same,MIC,[30]; [34],1 µg/mL
same,MIC,"[30]; Eikenella corrodens, 1874, Bacteroides corrodens 1874, second listing",4 µg/mL
same,pKa,"electrometric titration; pH 4.03, 66% dimethylformamide in water, initial pH 4.03, read-out: pKa (first titratable group)",~6.68
same,pKa,"electrometric titration; pH 4.03, 66% dimethylformamide in water, initial pH 4.03, read-out: pKa (second titratable group)",~8.42
CC(=O)C1c2c(c(O)c3c(O)cccc3c2-c2c3c(c(O)c4c(O)cccc24)C(=O)CC(C)(O)C3C(C)=O)C(=O)CC1(C)O (centres unmarked) [A-39183 factor A],MIC,"[1]; agar-dilution method, benzylpenicillin-susceptible, read-out: MIC",32 µg/mL
same,MIC,[2]; [31],32 µg/mL
same,solubility (soluble),solubility,"soluble in acetone, ethyl acetate, chloroform, dimethylformamide, dimethyl sulfoxide, and trifluoroethanol"
same,MIC,[6],16 µg/mL
same,MIC,[8],16 µg/mL
same,MIC,[9],64 µg/mL
same,MIC,[10],32 µg/mL
same,MIC,"[11]; agar-dilution method, read-out: MIC",32 µg/mL
same,MIC,[12],32 µg/mL
same,MIC,[19]; [32],16 µg/mL
same,MIC,[20],16 µg/mL
same,MIC,[21],32 µg/mL
same,MIC,[22],≤ 0.5 µg/mL
same,MIC,[23],64 µg/mL
same,MIC,Peptococcus prevoti 1281,32 µg/mL
same,MIC,Bacteroides fragilis 111; [33],32 µg/mL
same,MIC,[24],64 µg/mL
same,MIC,[25],32 µg/mL
same,MIC,[26],> 128 µg/mL
same,MIC,[28],32 µg/mL
same,MIC,[29],32 µg/mL
same,MIC,[30]; [34],32 µg/mL
same,pKa,"electrometric titration; pH 4.81, 66% dimethylformamide in water, initial pH 4.81, read-out: pKa (first titratable group)",~6.75
same,pKa,"electrometric titration; pH 4.81, 66% dimethylformamide in water, initial pH 4.81, read-out: pKa (second titratable group)",~8.43
